Among the data in patent EP1137645B1, “ALPHA-METHYLBENZYL-CONTAINING THIOUREA INHIBITORS OF HERPES VIRUSES CONTAINING A […] GROUP” (Wyeth, priority 1998, dated 2000) are IC50 and inhibition values, retold here.

Test [1] concerns HCMV recombinant mutant virus whose genome contains the prokaryotic beta-glucuronidase gene. Briefly: microbe, parasite or virus in culture. Particulars: Human betaherpesvirus 5, Fibroblast. The class given is cell-based, human cytomegalovirus. The procedure, abridged: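 Antiviral IC50 estimated from reduced reporter activity across compound amounts: lysates prepared 96 h after infection were tested with p-nitrophenyl- or methylumbelliferyl-glucuronide. Cells were human foreskin fibroblasts, infected alongside inhibitor with HCMV (e.g. RV145) expressing viral promoter-driven beta-glucuronidase.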

A further test relates to VZV strain Ellen. Nature of the test: VZV antiviral (ELISA) assay. The class given is cell-based. The procedure, abridged: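 HFF cells infected with VZV Ellen at multiplicity below 0.1 overnight, then mixed infected/uninfected cells seeded with compound in DMEM/2% FBS and incubated three days at 37°C, 5% CO2.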
In the next test the test system is HSV- I. Nature of the test: HSV antiviral (ELISA) assay. Particulars: read-out: IC50 (ug/ml) HSV. Format: cell-based. The procedure: Vero cells (ATCC #CCL-81) are plated on 96-well tissue culture plates at 3.5x10^4 cells per 100µl tissue culture DMEM (Dulbecco's modified Eagle media) supplemented with 2% fetal bovine serum (FBS) in each well. After overnight incubation @ 37°C (in 5% CO2) and 30 minutes prior to infection with HSV- I (multiplicity of infection equal to 0.006), cells are either untreated, or treated with test compound (multiple concentrations) or reference standard drug control. After approximately 24 hours post-infection incubation @ 37°C (in 5% CO2), cells are fixed for ELISA assay. The primary antibody is murine anti-HSV glycoprotein D monoclonal primary antibody and the secondary antibody is goat anti-mouse IgG linked to β-galactosidase. Thus the extent of viral replication is determined by assessing β-galactosidase activity by quantifying the generation of the 4-methyl umbelliferone fluorescent cleavage product after addition of the methyl umbelliferyl-β-D-galactoside (Sigma #M1633) substrate on a microfluorimeter (365nm for excitation and 450nm for emission). Antiviral activity (IC50) of the test compound is determined by comparing the flourescence obtained in absence of compound to that obtained in the presence of compound.

[2] abbreviates: read-out: IC50 ug/ml HCMV, HCMV, human foreskin fibroblasts.
[3] abbreviates: Human alphaherpesvirus 3, HFF, read-out: % inhibition 10 ug/ml VZV.
Setting [4] is: Human alphaherpesvirus 3, HFF, read-out: IC50 (ug/ml) VZV.
[5] abbreviates: Human alphaherpesvirus 3, VZV strain Ellen, HFF cells, ELISA, read-out: IC50 (ug/ml) VZV.
The mark [6] stands for this setting: Human alphaherpesvirus 3, HFF, read-out: IC50 (ug/ml) VZV, VZV strain Ellen, HFF cells, ELISA.
Where [7] appears, read: Human alphaherpesvirus 3, read-out: % inhibition 10 ug/ml VZV, 10 ug/ml, VZV strain Ellen, HFF cells, ELISA.

Values after ≈ are worked out from the molar mass of the structure shown. Read-outs that look alike come from different tables or passages of the source. Where only a bound is given, the exact number is not on record here.

Regarding `Nc1nccc(-c2ccc(NC(=S)Nc3ccc(NC(=O)c4ccccc4F)cc3)cc2Cl)n1` [Example 502, N-(4-{3-[4-(2-Amino-pyrimidin-4-yl)-3-chloro-phenyl]-thioureido}-phenyl)-2-fluoro-benzamide], the IC50 was 1.8 µg/mL (≈ 3.65 µM) in test [1] (setting [2]); above 10 µg/mL in the test on VZV strain Ellen (setting [4]); above 10 µg/mL in the test on HSV- I (HSV- I, Vero cells, ELISA). In addition, the inhibition at 10 µg/mL with VZV strain Ellen (setting [3]) came out at 13%.
As to `COc1cc(OC)c(NC(=S)Nc2ccc(NC(=O)c3ccccc3F)c(C(=O)c3ccccc3)c2)cc1Cl` [Example 293, N-{2-Benzoyl-4-[3-(5-chloro-2,4-dimethoxy-phenyl)-thioureido]-phenyl}-2-fluoro-benzamide], the IC50 in test [1] (setting [2]) is above 10 µg/mL; with VZV strain Ellen (setting [4]), above 10 µg/mL; with HSV- I (HSV- I, Vero cells, ELISA) it was above 50 µg/mL. Also, the inhibition at 10 µg/mL with VZV strain Ellen (setting [3]) amounted to 2%.
On to `C[C@H](NC(=S)Nc1ccc(NC(=O)c2ccccc2F)cc1)c1ccccc1` [Example 1013, 2-Fluoro-N-{4-[3-((1S)-1-phenyl-ethyl)-thioureido]-phenyl}-benzamide], for which the IC50 in test [1] (read-out: IC50 ug/ml HCMV) is 8.2 µg/mL (≈ 20.8 µM); in the test on VZV strain Ellen (setting [5]), 0.27 µg/mL (≈ 0.686 µM); in the test with HSV- I (HSV- I, Vero cells, ELISA) it was above 10 µg/mL.
For the molecule `Nc1ccc(C(F)(F)F)cc1NC(=S)Nc1ccc(NC(=O)c2ccccc2F)cc1` [Example 999, N-{4-[3-(2-Amino-5-trifluoromethyl-phenyl)-thioureido]-phenyl}-2-fluoro-benzamide], the IC50 in test [1] (read-out: IC50 ug/ml HCMV) is 4 µg/mL (≈ 8.92 µM); with VZV strain Ellen (setting [5]) it was 9.4 µg/mL (≈ 21 µM); with HSV- I (HSV- I, Vero cells, ELISA), 2.2 µg/mL (≈ 4.91 µM).
Turning to `CC(NC(=S)Nc1ccc(NC(=O)c2ccccc2F)cc1)c1ccc2ccccc2c1` (centres unmarked) [Example 799, 2-Fluoro-N-{4-[3-(1-naphthalen-2-yl-ethyl)-thioureido]-phenyl}-benzamide], the results for the IC50 (in test [1] (setting [2]); in the test on VZV strain Ellen (setting [6]); in the test with HSV- I (Vero)) were 1.7 µg/mL (≈ 3.83 µM), above 7.5 µg/mL and above 10 µg/mL, respectively.
`Cc1ccc(C(C)NC(=S)Nc2ccc(NC(=O)c3ccccc3F)cc2)cc1` (centres unmarked) [Example 782, 2-Fluoro-N-{4-[3-(1-p-tolyl-ethyl)-thioureido]-phenyl}-benzamide]: the values for the IC50 (in test [1] (setting [2]); in the test with VZV strain Ellen (setting [6]); in the test on HSV- I (Vero)) were 0.9 µg/mL (≈ 2.21 µM), 3 µg/mL (≈ 7.36 µM) and above 10 µg/mL, respectively.
As to `COc1ccccc1C(=O)Nc1ccc(NC(=S)Nc2cc(Cl)c(OC)c(Cl)c2)cc1` [Example 873, N-{4-[3-(3,5-Dichloro-4-methoxy-phenyl)-thioureido]-phenyl}-2-methoxy-benzamide], the IC50 in test [1] (setting [2]) was 0.3 µg/mL (≈ 0.63 µM); with VZV strain Ellen (setting [4]), above 10 µg/mL; with HSV- I (HSV- I, Vero cells, ELISA) it was above 10 µg/mL. Besides, in the test with VZV strain Ellen (setting [3]), the inhibition at 10 µg/mL worked out at 23%.
For `COc1ccc(NC(=S)Nc2ccc(NC(=O)c3ccc(F)cc3)cc2)cc1Cl` [Example 823, N-{4-[3-(3-Chloro-4-methoxy-phenyl)-thioureido]-phenyl}-4-fluoro-benzamide], the IC50 in test [1] (setting [2]) is 6 µg/mL (≈ 14 µM); in the test on VZV strain Ellen (setting [4]), above 10 µg/mL; in the test on HSV- I (HSV- I, Vero cells, ELISA), 6 µg/mL (≈ 14 µM). Moreover, in the test with VZV strain Ellen (setting [3]), the inhibition at 10 µg/mL is 7%.
In the case of `O=C(Nc1ccc(NC(=S)Nc2cccc(S(=O)(=O)CCO)c2)cc1)c1ccccc1F` [Example 969, 2-Fluoro-N-(4-{3-[3-(2-hydroxy-ethanesulfonyl)-phenyl]-thioureido}-phenyl)-benzamide], the IC50 is above 10 µg/mL in test [1] (setting [2]); above 10 µg/mL in the test on VZV strain Ellen (setting [4]); above 10 µg/mL in the test with HSV- I (HSV- I, Vero cells, ELISA). In addition, in the test with VZV strain Ellen (setting [3]), the inhibition at 10 µg/mL came out at 19%.
As for `CC(NC(=S)Nc1ccc(NC(=O)c2ccccc2F)cc1)c1cccc(Cl)c1` (centres unmarked) [Example 779, N-(4-{3-[1-(3-Chloro-phenyl)-ethyl]-thioureido}-phenyl)-2-fluoro-benzamide], the figures for the IC50 (in test [1] (setting [2]); with VZV strain Ellen (setting [6]); with HSV- I (Vero)) were 1.2 µg/mL (≈ 2.8 µM), above 7.5 µg/mL and above 10 µg/mL, respectively.
For `Cc1ccc([C@@H](C)NC(=S)Nc2ccc(NC(=O)c3ccccc3F)cc2)cc1` [Example 1012, 2-Fluoro-N-{4-[3-((1R)-1-p-tolyl-ethyl)-thioureido]-phenyl}-benzamide], the results for the IC50 (in test [1] (setting [2]); in the test with VZV strain Ellen (setting [6]); in the test with HSV- I (Vero)) were 7.1 µg/mL (≈ 17.4 µM), above 7.5 µg/mL and above 10 µg/mL, respectively.
The corresponding values for `CC(NC(=S)Nc1ccc(NC(=O)c2ccccc2C(F)(F)F)cc1)c1cc2ccccc2o1` (centres unmarked) [Example 974, N-{4-[3-(1-Benzofuran-2-yl-ethyl)-thioureido]-phenyl}-2-trifluoromethyl-benzamide] are above 10 µg/mL, above 7.5 µg/mL and above 10 µg/mL.
As for `COc1cc(OC)c(NC(=S)Nc2ccc(NC(=O)c3cccc(NS(C)(=O)=O)c3)cc2)cc1Cl` [Example 137, N-{4-[3-(5-Chloro-2,4-dimethoxy-phenyl)-thioureido]-phenyl}-3-methane-sulfony-amino-benzamide], the IC50 is 10 µg/mL (≈ 18.7 µM) in test [1] (setting [2]), above 15 µg/mL with VZV strain Ellen (setting [6]) and 10 µg/mL (≈ 18.7 µM) with HSV- I (Vero). Moreover, the inhibition at 10 µg/mL with VZV strain Ellen (setting [3]) is 72%.
With `N#Cc1cccc(NC(=S)Nc2ccc(NC(=O)c3ccccc3F)cc2)c1` [Example 461, N-{4-[3-(3-Cyano-phenyl)-thioureido]-phenyl}-2-fluoro-benzamide], the IC50 in test [1] (read-out: IC50 ug/ml HCMV) was above 10 µg/mL; with VZV strain Ellen (setting [5]), above 10 µg/mL; in the test with HSV- I (HSV- I, Vero cells, ELISA), above 10 µg/mL. Also, the inhibition at 10 µg/mL in the test with VZV strain Ellen (setting [7]) was found to be 33%.
Take `COc1cc(OCC(F)(F)F)ccc1NC(=S)Nc1ccc(NC(=O)c2ccccc2F)cc1` [Example 1006, 2-Fluoro-N-(4-{3-[2-methoxy-4-(2,2,2-trifluoro-ethoxy)-phenyl]-thioureido}-phenyl)-benzamide]: the IC50 in test [1] (read-out: IC50 ug/ml HCMV) came to 8.9 µg/mL (≈ 18 µM); with VZV strain Ellen (setting [5]), 11 µg/mL (≈ 22.3 µM); in the test on HSV- I (HSV- I, Vero cells, ELISA), 8.3 µg/mL (≈ 16.8 µM).
Consider `O=C(Nc1ccc(NC(=S)Nc2ccc(Br)c(Cl)c2)cc1)c1ccccc1F` [Example 915, N-{4-[3-(4-Bromo-3-chloro-phenyl)-thioureido]-phenyl}-2-fluoro-benzamide], for which the IC50 is above 10 µg/mL in test [1] (read-out: IC50 ug/ml HCMV); above 10 µg/mL in the test on VZV strain Ellen (setting [5]); above 10 µg/mL with HSV- I (HSV- I, Vero cells, ELISA). For the same molecule, in the test with VZV strain Ellen (setting [7]), the inhibition at 10 µg/mL was 29%.
In the case of `COc1cccc(C(=O)Nc2ccc(NC(=S)Nc3ccc(C)c(Cl)c3)cc2)c1` [Example 232, N-{4-[3-(3-Chloro-4-methyl-phenyl)-thioureido]-phenyl}-3-methoxy-benzamide], the IC50 in test [1] (setting [2]) was above 10 µg/mL; in the test on VZV strain Ellen (setting [4]), above 10 µg/mL; in the test with HSV- I (HSV- I, Vero cells, ELISA), 1 µg/mL (≈ 2.35 µM). Further, the inhibition at 10 µg/mL in the test with VZV strain Ellen (setting [3]) was determined as 21%.
As to `CC(NC(=S)Nc1ccc(NC(=O)c2cccc(C#N)c2)cc1)c1ccc(F)cc1` (centres unmarked) [Example 1020, 3-Cyano-N-(4-{3-[1-(4-fluoro-phenyl)-ethyl]-thioureido}-phenyl)-benzamide], the IC50 in test [1] (read-out: IC50 ug/ml HCMV) is 6.5 µg/mL (≈ 15.5 µM); in the test on VZV strain Ellen (setting [5]) it was 6.3 µg/mL (≈ 15.1 µM); with HSV- I (HSV- I, Vero cells, ELISA), above 10 µg/mL.
On to `CC(O)c1cccc(NC(=S)Nc2ccc(NC(=O)c3ccccc3F)cc2)c1` (centres unmarked) [Example 448, 2-Fluoro-N-(4-{3-[3-(1-hydroxy-ethyl)-phenyl]-thioureido}-phenyl)-benzamide], for which the IC50 in test [1] (read-out: IC50 ug/ml HCMV) is 9 µg/mL (≈ 22 µM); in the test with VZV strain Ellen (setting [5]), above 10 µg/mL; in the test on HSV- I (HSV- I, Vero cells, ELISA), above 10 µg/mL. In addition, the inhibition at 10 µg/mL in the test on VZV strain Ellen (setting [7]) was found to be 0%.
On to `O=C(Nc1ccc(NC(=S)Nc2ccc(C(F)(F)F)c(Cl)c2)cc1)c1ccccc1F` [Example 911, N-{4-[3-(3-Chloro-4-trifluoromethyl-phenyl)-thioureido]-phenyl}-2-fluoro-benzamide], for which the IC50 is 8 µg/mL (≈ 17.1 µM) in test [1] (setting [2]); above 10 µg/mL in the test with VZV strain Ellen (setting [4]); above 10 µg/mL in the test with HSV- I (HSV- I, Vero cells, ELISA). Moreover, the inhibition at 10 µg/mL with VZV strain Ellen (setting [3]) was found to be 38%.
For `COc1cc(OC)c(NC(=S)Nc2ccc(NC(=O)c3cccc4ccccc34)cc2)cc1Cl` [Example 157, Naphthalene-1-carboxylic acid {4-[3-(5-chloro-2,4-dimethoxy-phenyl)-thioureido]-phenyl}-amide], the IC50 in test [1] (setting [2]) is 8 µg/mL (≈ 16.3 µM); in the test on VZV strain Ellen (setting [4]), above 10 µg/mL; with HSV- I (HSV- I, Vero cells, ELISA) it was 0.9 µg/mL (≈ 1.83 µM). The inhibition at 10 µg/mL in the test with VZV strain Ellen (setting [3]) came out at 32%.
The corresponding values for `COc1cc(OC)c(NC(=S)Nc2ccc(NC(=O)c3cccc(C(=O)O)c3)cc2)cc1Cl` [Example 209, N-{4-[3-(5-Chloro-2,4-dimethoxy-phenyl)-thioureido]-phenyl}-isophthalamic acid] are above 50 µg/mL, above 10 µg/mL, above 50 µg/mL and 22%.
The corresponding values for `CC(O)c1ccc(NC(=S)Nc2ccc(NC(=O)c3ccccc3F)cc2)cc1Cl` (centres unmarked) [Example 865, N-(4-{3-[3-Chloro-4-(1-hydroxy-ethyl)-phenyl]-thioureido}-phenyl)-2-fluoro-benzamide] are 0.3 µg/mL (≈ 0.676 µM), above 10 µg/mL, 4 µg/mL (≈ 9.01 µM) and 52%.
